# Results as given in ChEMBL document CHEMBL5584324, “Exploiting spirooxindoles for dual DNA targeting/CDK2 inhibition and simultaneous mitigation of oxidative stress towards selective NSCLC therapy; synthesis, evaluation, and molecular modelling studies” (RSC Med Chem, 2024).
# Active and inactive are the calls of the source. The calls are words filed in the database; no cut-off is given here.
# Assays:
# [1] = Selectivity index, ratio of IC50 for cytotoxicity against human WI-38 cells to IC50 for cytotoxicity against human A549 cells; type: toxicity, cell-based; settings: WI-38 cells versus A549 cells, read-out: Ratio IC50
# NCI-H460 = assay: Cytotoxicity against human NCI-H460 cells incubated for 72 hrs by MTT assay; settings: NCI-H460, 72 h
# [2] = Selectivity index, ratio of IC50 for cytotoxicity against human WI-38 cells to IC50 for cytotoxicity against human NCI-H460 cells; type: toxicity, cell-based; settings: WI-38 cells versus NCI-H460 cells, read-out: Ratio IC50
# [3] = Cytotoxicity against human WI-38 cells incubated for 72 hrs by MTT assay; type: toxicity, cell-based
# WI-38 = assay: Cytotoxicity against human WI-38 cells by measuring effective concentration incubated for 72 hrs by MTT assay; type: toxicity, cell-based; settings: wi-38, 72 h
# A549 [4] = assay: cells; settings: Homo sapiens, A549, 72 h
# Description: Cytotoxicity against human A549 cells incubated for 72 hrs by MTT assay
# Calf thymus DNA [5] = assay: Binding affinity to calf thymus DNA assessed as disruption of DNA by measuring increase in TB3+ fluorescence at 5 uM incubated for 24 hrs followed by biosensor TbCl3 addition by fluorescence spectrophotometric analysis; type: tissue-based; settings: Bos taurus
# Calf thymus DNA [6] = assay: Binding affinity to calf thymus DNA assessed as disruption of DNA by measuring increase in TB3+ fluorescence at 35.3 nM incubated for 24 hrs followed by biosensor TbCl3 addition by fluorescence spectrophotometric analysis; type: tissue-based; settings: Bos taurus
# Calf thymus DNA [7] = assay: Binding affinity to calf thymus DNA assessed as disruption of DNA by measuring increase in TB3+ fluorescence upto 4 uM incubated for 24 hrs followed by biosensor TbCl3 addition by fluorescence spectrophotometric analysis; type: tissue-based; settings: Bos taurus
# A549 [8] = assay: Cytotoxicity against human A549 cells assessed as morphological damage incubated for 72 hrs by inverted phase contrast microscopic analysis; type: functional, cell-based
# A549 [9] = assay: Induction of cell cycle arrest in human A549 cells assessed as accumulation of cells at G1 phase at 0.089 uM incubated for 48 hrs by propidium iodide staining based immunocytometric analysis (reference value: 44.75 %); type: functional
# A549 [10] = assay: Induction of cell cycle arrest in human A549 cells assessed as accumulation of aggregates at 0.089 uM incubated for 48 hrs by propidium iodide staining based immunocytometric analysis (reference value: 1.81 %); type: functional
# A549 [11] = assay: Induction of apoptosis in human A549 cells assessed as early apoptotic cells at 0.089 uM incubated for 48 hrs by annexin V-FITC/PI staining based flow cytometry (reference value: 0.37 %); type: functional
# A549 [12] = assay: Induction of apoptosis in human A549 cells assessed as late apoptotic cells at 0.089 uM incubated for 48 hrs by annexin V-FITC/PI staining based flow cytometry (reference value: 0.28 %); type: functional
# A549 [13] = assay: Induction of cell cycle arrest in human A549 cells assessed as accumulation of cells at S phase at 0.089 uM incubated for 48 hrs by propidium iodide staining based immunocytometric analysis (reference value: 36.94 %); type: functional
# [14] = Antioxidant activity assessed as DPPH radical scavenging activity at 10 uM incubated for 30 mins by absorbance based assay relative to trolox; type: functional
# A549 [15] = assay: Induction of apoptosis in human A549 cells assessed as necrotic cells at 0.089 uM incubated for 48 hrs by annexin V-FITC/PI staining based flow cytometry (reference value: 1.21 %); type: functional
# [16] = Antioxidant activity assessed as DPPH radical scavenging activity incubated for 30 mins by absorbance based assay; type: functional
# A549 [17] = assay: Induction of cell cycle arrest in human A549 cells assessed as accumulation of cells at G2/M phase at 0.089 uM incubated for 48 hrs by propidium iodide staining based immunocytometric analysis (reference value: 18.31 %); type: functional
# Calf thymus DNA [18] = assay: Binding affinity to calf thymus DNA assessed as disruption of DNA by measuring increase in TB3+ fluorescence at 24.6 nM incubated for 24 hrs followed by biosensor TbCl3 addition by fluorescence spectrophotometric analysis; type: tissue-based; settings: Bos taurus
# [19] = Antioxidant activity assessed as DPPH radical scavenging activity at 100 uM incubated for 30 mins by absorbance based assay (reference value: […] %); type: functional
# A549 [20] = assay: Induction of cell cycle arrest in human A549 cells assessed as accumulation of cell debris at 0.089 uM incubated for 48 hrs by propidium iodide staining based immunocytometric analysis (reference value: 2.25 %); type: functional
Compound,selectivity ratio [1],IC50 (NCI-H460) [nM],selectivity ratio [2],IC50 at 72 h [3] [nM],EC100 (WI-38) [µM],IC50 (A549 [4]) [nM],also measured
O=C(c1ccc([N+](=O)[O-])cc1)[C@H]1[C@H](c2cn(-c3ccccc3)nc2-c2ccccc2)[C@@H]2CC3CCCCC3N2[C@]12C(=O)Nc1ccccc12 (some centres undefined),3.47,909,0.78,712,0.41,205,–
O=C(c1ccccc1)[C@H]1[C@H](c2cn(-c3ccccc3)nc2-c2ccccc2)[C@@H]2CC3CCCCC3N2[C@]12C(=O)Nc1ccc(Cl)cc12 (some centres undefined),2.02,529,0.88,467,0.28,231,–
O=C(c1ccccc1[N+](=O)[O-])[C@H]1[C@H](c2cn(-c3ccccc3)nc2-c2ccccc2)[C@@H]2CC3CCCCC3N2[C@]12C(=O)Nc1ccccc12 (some centres undefined),2.43,613,0.67,413,0.224,170,–
O=C(c1ccccc1[N+](=O)[O-])[C@H]1[C@H](c2cn(-c3ccccc3)nc2-c2ccccc2)[C@@H]2CC3CCCCC3N2[C@]12C(=O)Nc1ccc(Cl)cc12 (some centres undefined),–,1340,–,294,0.094,96,Activity (Calf thymus DNA [5]): Active; Activity (Calf thymus DNA [6]): Active; Activity (Calf thymus DNA [7]): Active; Activity (A549 [8]): Active
CN1C[C@@H](c2cn(-c3ccccc3)nc2-c2ccccc2)[C@H](C(=O)c2ccccc2)[C@@]12C(=O)Nc1ccccc12,3.79,761,1.71,1300,0.59,344,–
O=C(c1ccc(Br)cc1)[C@H]1[C@H](c2cn(-c3ccccc3)nc2-c2ccccc2)[C@@H]2CC3CCCCC3N2[C@]12C(=O)Nc1cc(Cl)ccc12 (some centres undefined),5.05,1420,0.73,1040,0.594,205,–
O=C(c1ccccc1)[C@H]1[C@H](c2cn(-c3ccccc3)nc2-c2ccccc2)[C@@H]2CC3CCCCC3N2[C@]12C(=O)Nc1ccccc12 (some centres undefined),2.69,537,1.53,825,0.451,307,–
COc1ccc2c(c1)[C@@]1(C(=O)N2)[C@@H](C(=O)c2ccc([N+](=O)[O-])cc2)[C@H](c2cn(-c3ccccc3)nc2-c2ccccc2)[C@@H]2CC3CCCCC3N21 (some centres undefined),3.65,895,0.86,773,0.366,212,–
CN1C[C@@H](c2cn(-c3ccccc3)nc2-c2ccccc2)[C@H](C(=O)c2ccc([N+](=O)[O-])cc2)[C@@]12C(=O)Nc1ccccc12,3.32,748,0.99,741,0.375,223,–
COc1ccc2c(c1)[C@@]1(C(=O)N2)[C@@H](C(=O)c2ccc([N+](=O)[O-])cc2)[C@H](c2cn(-c3ccccc3)nc2-c2ccccc2)CN1C,6.34,1140,1.3,1490,0.539,235,–
O=C(c1ccccc1[N+](=O)[O-])[C@H]1[C@H](c2cn(-c3ccccc3)nc2-c2ccccc2)[C@@H]2CC3CCCCC3N2[C@]12C(=O)Nc1cc(Cl)ccc12 (some centres undefined),3.35,911,0.48,435,0.142,130,–
CN1C[C@@H](c2cn(-c3ccccc3)nc2-c2ccccc2)[C@H](C(=O)c2ccc([N+](=O)[O-])cc2)[C@@]12C(=O)Nc1ccc(Cl)cc12,3.66,1030,0.46,480,0.287,131,–
O=C(c1ccccc1)[C@H]1[C@H](c2cn(-c3ccccc3)nc2-c2ccccc2)[C@@H]2CC3CCCCC3N2[C@]12C(=O)Nc1cc(Cl)ccc12 (some centres undefined),2.65,964,0.53,509,0.267,192,–
COc1cccc2c1C(=O)c1c(O)c3c(c(O)c1C2=O)C[C@@](O)(C(=O)CO)C[C@@H]3O[C@H]1C[C@H](N)[C@H](O)[C@H](C)O1 [DOXORUBICIN],–,–,–,129,0.033,–,Activity (Calf thymus DNA [5]): Active
CN1C[C@@H](c2cn(-c3ccccc3)nc2-c2ccccc2)[C@H](C(=O)c2ccccc2)[C@@]12C(=O)Nc1ccc(Cl)cc12,1.93,417,1.3,545,0.308,283,–
O=C(c1ccc([N+](=O)[O-])cc1)[C@H]1[C@H](c2cn(-c3ccccc3)nc2-c2ccccc2)[C@@H]2CC3CCCCC3N2[C@]12C(=O)Nc1ccc(Cl)cc12 (some centres undefined),–,2460,–,480,0.249,89,Activity (Calf thymus DNA [5]): Active; Activity (Calf thymus DNA [7]): Active; Activity (A549 [9]): 38.56%; Activity (A549 [10]): 1.96%; Activity (A549 [11]): 25.72%; Activity (A549 [12]): 15.13%; Activity (A549 [13]): 33.28%; Activity [14]: 60%; Activity (A549 [15]): 7.46%; Activity [16]: Dose-Dependent Effect; Activity (A549 [8]): Active; Activity (A549 [17]): 28.16%; Activity (Calf thymus DNA [18]): Active; Activity [19]: 88.4%; Activity (A549 [20]): 2.03%
O=C(c1ccc(Br)cc1)[C@H]1[C@H](c2cn(-c3ccccc3)nc2-c2ccccc2)[C@@H]2CC3CCCCC3N2[C@]12C(=O)Nc1ccccc12 (some centres undefined),2.95,725,0.64,466,0.271,158,–
